These results are taken from ChEMBL document CHEMBL1201862, “PubChem BioAssay data set” (2004).

Test systems include OVCAR-8; SNB-19; NCI/ADR-RES; A498; SK-MEL-28; SK-OV-3; LOX IMVI; RXF 393; OVCAR-5; IGROV-1; HOP-92; COLO 205; MDA-MB-231; HCT-15; M14; SK-MEL-2; A549; U-251; NCI-H23.
What all share (experiment): NCI-60 cell line screen, 48 h

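Following 48 hours of exposure in 96-well plates, responses at five concentrations were used to interpolate endpoints linearly. GI50 = concentration required for 50% inhibition of growth.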 Active and inactive are the calls of the source. No stated cut-off is given here; in the data, active = GI50 up to about 1.1 µM and inactive = higher.

With `N#CCCN(CCC#N)c1ccc(/C=C2\N=C(c3ccccc3)N(c3ccc(C(=O)O)cc3)C2=O)cc1`, the GI50 with OVCAR-8 is 26.2 µM (inactive); with SNB-19, 32.2 µM (inactive); with NCI/ADR-RES, > 100 µM (inactive); in the test with A498, > 100 µM (inactive); in the test on SK-MEL-28 it was 36 µM (inactive); in the test with SK-OV-3, > 100 µM (inactive). Moreover, the GI50 with LOX IMVI was 30.9 µM (inactive); with RXF 393, 40.7 µM (inactive); with OVCAR-5, > 100 µM (inactive); in the test on IGROV-1, 20.3 µM (inactive); in the test with HOP-92, 6.28 µM (inactive); with COLO 205 it was 39 µM (inactive). For the same molecule, the GI50 was 52 µM (inactive) in the test with MDA-MB-231; 40.8 µM in the test on HCT-15; 72.1 µM (inactive) in the test with M14; 52.5 µM (inactive) in the test with SK-MEL-2; > 100 µM (inactive) with A549; 30.2 µM (inactive) in the test on U-251.
For `O=C1CCc2nc3ncccc3cc2C1`, the GI50 in the test with SNB-19, with NCI-H23, with NCI/ADR-RES, in the test on A498, in the test on SK-MEL-28 and in the test on SK-OV-3 was > 100 µM (inactive) throughout. Besides, the GI50 was > 100 µM (inactive) in the test on RXF 393; > 100 µM (inactive) with OVCAR-5; 58.2 µM (inactive) in the test on IGROV-1; > 100 µM (inactive) in the test with HOP-92; > 100 µM (inactive) in the test on COLO 205; > 100 µM (inactive) in the test with MDA-MB-231. For the same molecule, the GI50 is 96.4 µM in the test on HCT-15, > 100 µM (inactive) with M14, > 100 µM (inactive) with SK-MEL-2 and > 100 µM (inactive) in the test on A549.
As to `c1ccc2c(c1)nc1n2CCSC1`, the GI50 in the test on SNB-19, in the test with NCI-H23, in the test on NCI/ADR-RES, in the test with A498, with SK-MEL-28 and in the test with SK-OV-3 was > 100 µM (inactive) in each case. Also, the GI50 in the test on LOX IMVI was > 100 µM (inactive); with RXF 393 it was > 100 µM (inactive); with OVCAR-5 it was > 100 µM (inactive); in the test on IGROV-1, 74.8 µM (inactive); with HOP-92, > 100 µM (inactive); in the test with COLO 205, > 100 µM (inactive). For the same molecule, the GI50 was > 100 µM (inactive) with MDA-MB-231; over 100 µM in the test with HCT-15; > 100 µM (inactive) with M14; > 100 µM (inactive) in the test with SK-MEL-2; > 100 µM (inactive) in the test with A549; > 100 µM (inactive) in the test with U-251.
Regarding `CC(C)=CCNc1nc(Cl)nc2[nH]cnc12`, the GI50 in the test with OVCAR-8 was 46.5 µM (inactive); with SNB-19, 29 µM (inactive); in the test with NCI-H23 it was 56.6 µM (inactive); with NCI/ADR-RES it was 35.7 µM (inactive); in the test on A498, 44 µM (inactive); with SK-MEL-28, > 100 µM (inactive). Besides, the GI50 with SK-OV-3 was 16.4 µM (inactive); with LOX IMVI, > 100 µM (inactive); in the test on RXF 393 it was 25.2 µM (inactive); in the test on OVCAR-5, > 100 µM (inactive); with IGROV-1, > 100 µM (inactive); in the test on HOP-92, 35 µM (inactive). Further, the GI50 is > 100 µM (inactive) in the test on COLO 205, 21.5 µM (inactive) with MDA-MB-231, > 100 µM (inactive) with M14 and 28.8 µM (inactive) in the test with A549.
With `COc1ccc(CC2c3cc4c(cc3CCN2C)OCO4)c(C=O)c1OC` (stereo not given), the GI50 in the test with OVCAR-8, with SNB-19, with NCI-H23, with NCI/ADR-RES, in the test with A498 and with SK-MEL-28 was > 100 µM (inactive) in each case. Moreover, the GI50 with SK-OV-3, in the test with LOX IMVI, in the test with OVCAR-5, with IGROV-1, in the test on HOP-92 and with COLO 205 was > 100 µM (inactive) in each case. In addition, the GI50 was > 100 µM (inactive) in the test on MDA-MB-231; over 100 µM in the test on HCT-15; > 100 µM (inactive) with M14; > 100 µM (inactive) in the test on SK-MEL-2; > 100 µM (inactive) in the test on A549; > 100 µM (inactive) with U-251.
For the molecule `COc1c(NC(C)=O)c2ccccc2c2ccccc12`, the GI50 in the test with OVCAR-8, with SNB-19, in the test with NCI-H23, in the test with NCI/ADR-RES, in the test on A498 and with SK-MEL-28 was > 100 µM (inactive) in each case. Moreover, the GI50 in the test on LOX IMVI was > 100 µM (inactive); in the test with RXF 393, > 100 µM (inactive); in the test with OVCAR-5, > 100 µM (inactive); in the test on IGROV-1 it was > 100 µM (inactive); with HOP-92, 42.2 µM (inactive); in the test with MDA-MB-231 it was > 100 µM (inactive). For the same molecule, the GI50 in the test on HCT-15 is over 100 µM; with M14, > 100 µM (inactive); with SK-MEL-2 it was > 100 µM (inactive); in the test with A549, > 100 µM (inactive); with U-251 it was > 100 µM (inactive).
In the case of `O=C(Nc1ccc(Cl)cc1C(F)(F)F)C(=O)Nn1c(S)nc2ccccc2c1=O`, the GI50 in the test with OVCAR-8, with NCI-H23, with NCI/ADR-RES, with A498, with SK-MEL-28 and with SK-OV-3 was > 100 µM (inactive) in each case. For the same molecule, the GI50 was > 100 µM (inactive) in the test with LOX IMVI; > 100 µM (inactive) in the test with RXF 393; > 100 µM (inactive) in the test on OVCAR-5; 3.99 µM (inactive) in the test with HOP-92; > 100 µM (inactive) in the test with MDA-MB-231; over 100 µM in the test on HCT-15. Besides, the GI50 with M14, with SK-MEL-2, in the test on A549 and with U-251 was > 100 µM (inactive) each time.
Consider `CC(=O)OCC1OC(N2C(S)=C(C#N)C(c3ccco3)C(C(C)=O)=C2c2ccccc2)C(OC(C)=O)C(OC(C)=O)C1OC(C)=O` (stereo not given), for which the GI50 is 61 µM (inactive) in the test on OVCAR-8; 39.5 µM (inactive) in the test on SNB-19; 64.4 µM (inactive) in the test on NCI-H23; > 100 µM (inactive) in the test on NCI/ADR-RES; > 100 µM (inactive) in the test on A498; 30.1 µM (inactive) in the test with SK-MEL-28. Besides, the GI50 was 32.1 µM (inactive) in the test with LOX IMVI; > 100 µM (inactive) with RXF 393; 62.4 µM (inactive) with OVCAR-5; 54.5 µM (inactive) with IGROV-1; 32.9 µM (inactive) with HOP-92; 64.9 µM (inactive) in the test with COLO 205. Moreover, the GI50 was > 100 µM (inactive) in the test with MDA-MB-231; over 100 µM with HCT-15; 94.6 µM (inactive) with M14; > 100 µM (inactive) with SK-MEL-2; 49.4 µM (inactive) in the test on A549; 39.3 µM (inactive) in the test with U-251.
Regarding `C#CCCCOc1ncccn1`, the GI50 in the test with OVCAR-8, in the test on SNB-19, in the test with NCI-H23, with NCI/ADR-RES, in the test on A498 and with SK-MEL-28 was > 100 µM (inactive) in each case. Also, the GI50 in the test with SK-OV-3, in the test with LOX IMVI, in the test on RXF 393, in the test on OVCAR-5, in the test on IGROV-1 and in the test with HOP-92 was > 100 µM (inactive) each time. For the same molecule, the GI50 in the test on COLO 205, with MDA-MB-231, in the test on M14, in the test on SK-MEL-2, with A549 and in the test with U-251 was > 100 µM (inactive) in each case.
